Assay results from patent publication US20240279202A1 (NURIX THERAPEUTICS, INC., priority 2021, published 2024).
Where two headings read alike, the source gives them in different places.

Assays:
ITK = target: T1, ITK (Homo sapiens, UniProt Q08881); assay: ITK degradation HiBiT assay; format: cell-based; design: expressed in transfected cells; host or cells: Molt4 (ATCC CRL-1552), monoclonal clone 1C10, engineered to carry the HiBiT tag; details: 4 hrs; for DC50: C-terminal HiBiT-tagged Molt4 cells; for Dmax: MOLT-4, C-terminal HiBiT-tagged Molt4 cells
T1 sequence (Q08881 1-620): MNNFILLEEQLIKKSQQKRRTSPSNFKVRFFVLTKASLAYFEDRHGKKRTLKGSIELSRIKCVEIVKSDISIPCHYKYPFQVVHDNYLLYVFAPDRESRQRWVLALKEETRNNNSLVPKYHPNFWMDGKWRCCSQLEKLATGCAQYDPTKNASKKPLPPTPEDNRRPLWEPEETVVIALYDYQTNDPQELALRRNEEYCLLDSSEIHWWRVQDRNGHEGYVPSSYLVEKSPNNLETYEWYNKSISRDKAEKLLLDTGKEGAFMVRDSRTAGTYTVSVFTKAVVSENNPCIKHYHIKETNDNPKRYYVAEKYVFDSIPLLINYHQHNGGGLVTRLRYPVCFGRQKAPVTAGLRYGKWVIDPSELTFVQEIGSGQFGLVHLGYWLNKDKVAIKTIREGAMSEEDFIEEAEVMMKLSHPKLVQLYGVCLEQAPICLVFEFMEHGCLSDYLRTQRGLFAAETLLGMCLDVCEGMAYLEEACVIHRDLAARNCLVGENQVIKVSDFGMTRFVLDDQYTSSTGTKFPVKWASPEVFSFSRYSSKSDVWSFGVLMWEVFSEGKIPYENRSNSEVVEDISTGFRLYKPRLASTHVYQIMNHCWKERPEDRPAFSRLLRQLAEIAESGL
Procedure, shortened: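 C-terminal HiBiT-tagged Molt4 cells (clone 1C10) treated 4 h at 32° C with an 11-point, 5-fold compound dilution series (0.5% DMSO). HiBiT lytic detection with LgBiT then luminescence read; % ITK remaining versus concentration fit by four-parameter variable-slope model to give DC50 and Dmax.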

[1] = Mouse PK analysis (blood/plasma concentration after oral administration); format: in vivo; details: mouse, mice
Method: Compounds 1, 3, 7, and 42 were formulated and administered at 90 mg/kg to mice by oral gavage (PO). Blood was collected at defined time points (after 1, 2, and 6 hours) after compounds administration to determine PK parameters. Concentration increased through 6 hours. Six hours later mice were sacrificed and splenocytes were isolated and used to prepare protein lysates. Total protein levels were determined in the lysates using the BCA assay according to standard methods. Equal amounts of protein were then analyzed by Western blot to determine the level of ITK expression in each sample. ITK band intensities were measured using Alpha View software and the percent of ITK remaining in each test animal was determined relative to the mean of ITK levels in vehicle control samples.
Compounds 16, 17, and 18 were administered to mice orally. After 6 hours or 24 hours, splenocytes cells were harvested. ITK was evaluated by Western blotting. Plasma concentrations were determined by LC/MS/MS. Plasma samples were protein precipitated by addition of 100 μl of acetonitrile containing 50 ng/ml of internal standard. The resulting mixture was vortexed and centrifuged at 4000 RPM for 5 minutes. An aliquot of the resultant supernatant (75 μl) was added to 75 μl of 0.1% formic acid in water to constitute the final sample for injection. Samples were injected on a Shimadzu Exion LC Binary Gradient AD Pump HLPC system connected to a Sciex QTRAP 6500+mass spectrometer. Five μl of sample was injected onto a Waters Acquity UPLC BEH C18 column 130A (2.1×30 mm, […]) at 40° C. utilizing a flow rate of 700 μl/minute. Mobile Phase A was 0.1% formic acid in water and mobile phase B was 0.1% formic acid in acetonitrile. A linear gradient of 15-95% B over 1.0 minute was used. The mass spectrometer was operated in positive ion electrospray mode with multiple reaction monitoring for maximum sensitivity. Sciex Analyst software (version 1.6.3) was used for LC/MS/MS instrument control and acquisition. Compound concentration was determined against a standard curve of internal standard versus compound peak area ratio. Noncompartmental PK parameters were determined using […] software (version 8.2.0.4383) from Certara. Plasma concentrations from the LC/MS/MS analyses, dose, route of administration, and desired units were utilized for PK parameter calculations. […] FIG. 4C provides the concentration over time of compound 17 following in vivo oral administration in the 6 hour and 24 hour assays.
Cmax, Tmax and AUClast were all calculated using a WinNonLin Phoenix 64 v 8.2.0.4383. Using non-compartmental analysis, Tmax, Cmax and AUClast were determined as follows: • Tmax—Time of maximum observed concentration. • Cmax—Maximum observed concentration, occurring at time Tmax, as defined above. • AUClast—Area under the curve from the time of dosing to the time of the last measurable (positive) concentration (Tlast).

[2] = plasma, oral, 90 mg/kg, 2 h, read-out: Cal. Conc. Total (μM) 2 h
[3] = plasma, oral, 90 mg/kg, 6 h, read-out: Cal. Conc. Total (μM) 6 h

SMILES | DC50 (ITK) [nM] | Dmax (ITK) [%] | concentration at 1 h ([1]; 90 mg/kg PO, blood, timepoint 1 h, read-out: Concentration (μM), mean calculated) [µM] | concentration at 2 h ([1]; 90 mg/kg PO, blood, timepoint 2 h, read-out: Concentration (μM), mean calculated) [µM] | concentration at 6 h ([1]; 90 mg/kg PO, blood, timepoint 6 h, read-out: Concentration (μM), mean calculated) [µM] | AUC(0-t) ([1]; oral, plasma) [µM·h] | Cmax ([1]; oral, plasma) [nM] | Tmax ([1]; oral, plasma) [h] | concentration at 1 h ([1]; plasma, oral, 90 mg/kg, 1 h, read-out: Cal. Conc. Total (μM) 1 h) [µM] | concentration at 2 h [1, 2] [µM] | concentration at 6 h [1, 3] [µM]
C[C@@H](C(=O)N(C)c1ccc2cc(-c3n[nH]c4c3CCC(C)(C)C4)[nH]c2c1)N1CCN(CC2CCN(c3cccc4c3n(C)c(=O)n4C3CCC(=O)NC3=O)CC2)CC1 (stereo partly drawn) [Compound 3, (2S)—N-(2-(6,6-dimethyl-4,5,6,7-tetrahydro-1H-indazol-3-yl)-1H-indol-6-yl)-2-(4-((1-(1-(2,6-dioxopiperidin-3-yl)-3-methyl-2-oxo-2,3-dihydro-1H-benzo[d]imidazol-4-yl)piperidin-4-yl)methyl)piperazin-1-yl)-N-methylpropanamide] | 0.29 | 76 | 0.228 | 0.702 | 2.71 | 1.99 | 471 | 4 |  |  | 
CC1(C)CCc2c(-c3cc4ccc(N5CCC6(CCN(CC7CCN(c8ccc(C9CCC(=O)NC9=O)cn8)CC7)CC6)C5=O)cc4[nH]3)n[nH]c2C1 (centres unmarked) [Compound 22, 3-(6-(4-((2-(2-(6,6-dimethyl-4,5,6,7-tetrahydro-1H-indazol-3-yl)-1H-indol-6-yl)-1-oxo-2,8-diazaspiro[4.5]decan-8-yl)methyl)piperidin-1-yl)pyridin-3-yl)piperidine-2,6-dione] | 0.01 | 82 |  |  |  | 7.07 | 2430 | 1 |  |  | 
C[C@@H](C(=O)N(C)c1ccc2cc(-c3n[nH]c4c3CCC(C)(C)C4)[nH]c2c1)N1CCN(CC2CCN(c3ccc(C(=O)NC4CCC(=O)NC4=O)nc3)CC2)CC1 (stereo partly drawn) [Compound 7, 5-(4-((4-((S)-1-((2-(6,6-dimethyl-4,5,6,7-tetrahydro-1H-indazol-3-yl)-1H-indol-6-yl)(methyl)amino)-1-oxopropan-2-yl)piperazin-1-yl)methyl)piperidin-1-yl)-N-(2,6-dioxopiperidin-3-yl)picolinamide] |  |  |  |  |  |  |  |  | 0.2 | 0.29 | 0.45
CN(c1ccc2cc(-c3n[nH]c4c3C[C@@H]3C(F)(F)[C@]3(C)C4)[nH]c2c1)C(=O)[C@H]1C[C@]2(CCN(c3ccc4c(c3)C(=O)N([C@H]3CCC(=O)NC3=O)C4=O)C2)C1 (racemic) [Compound 71b, (2s,4s)-N-[2-[(4aS,5aR)-5,5-difluoro-5a-methyl-1H,4H,4aH,6H-cyclopropa[f]indazol-3-yl]-1H-indol-6-yl]-6-[2-[(3RS)-2,6-dioxopiperidin-3-yl]-1,3-dioxoisoindol-5-yl]-N-methyl-6-azaspiro[3.4]octane-2-carboxamide] | 2 | 85 |  |  |  | 0.78 | 223 | 1.5 |  |  | 
C[C@@H](C(=O)N(C)c1ccc2cc(-c3n[nH]c4c3CCC(C)(C)C4)[nH]c2c1)N1CCN(C[C@@H]2CCN(c3ccc4c(c3)n(C)c(=O)n4C3CCC(=O)NC3=O)C2)CC1 (stereo partly drawn) [Compound 4, (2S)—N-(2-(6,6-dimethyl-4,5,6,7-tetrahydro-1H-indazol-3-yl)-1H-indol-6-yl)-2-(4-(((3S)-1-(1-(2,6-dioxopiperidin-3-yl)-3-methyl-2-oxo-2,3-dihydro-1H-benzo[d]imidazol-5-yl)pyrrolidin-3-yl)methyl)piperazin-1-yl)-N-methylpropanamide] | 2.3 | 64 |  |  |  | 0.54 | 127 | 2 |  |  | 
C[C@@H](C(=O)N(C)c1ccc2cc(-c3n[nH]c4c3C[C@@H]3C(F)(F)[C@]3(C)C4)[nH]c2c1)N1CCN(C[C@H]2CCN(c3ccc4c(c3)C(=O)N(C3CCC(=O)NC3=O)C4=O)C2)CC1 (stereo partly drawn) [Compound 9, (2S)—N-(2-((4aS,5aR)-5,5-difluoro-5a-methyl-1,4,4a,5,5a,6-hexahydrocyclopropa[f]indazol-3-yl)-1H-indol-6-yl)-2-(4-(((3R)-1-(2-(2,6-dioxopiperidin-3-yl)-1,3-dioxoisoindolin-5-yl)pyrrolidin-3-yl)methyl)piperazin-1-yl)-N-methylpropanamide] | 0.21 | 85 |  |  |  | 0.154 | 46 | 6 |  |  | 
CN(C(=O)CCC1CCN(c2ccc(C(=O)NC3CCC(=O)NC3=O)nc2)C1)c1ccc2cc(-c3n[nH]c4c3C[C@@H]3C(F)(F)[C@]3(C)C4)[nH]c2c1 (stereo partly drawn) [Compound 69, 5-(3-(3-((2-((4aS,5aR)-5,5-difluoro-5a-methyl-1,4,4a,5,5a,6-hexahydrocyclopropa[f]indazol-3-yl)-1H-indol-6-yl)(methyl)amino)-3-oxopropyl)pyrrolidin-1-yl)-N-(2,6-dioxopiperidin-3-yl)picolinamide] |  | 42 |  |  |  | 1.26 | 283 | 3.5 |  |  | 
C[C@@H](C(=O)N(C)c1ccc2cc(-c3n[nH]c4c3C[C@@H]3C(F)(F)[C@]3(C)C4)[nH]c2c1)N1CCN(CC2CCN(c3cccc4c3n(C)c(=O)n4C3CCC(=O)NC3=O)CC2)CC1 (stereo partly drawn) [Compound 65, (2S)—N-(2-((4aS,5aR)-5,5-difluoro-5a-methyl-1,4,4a,5,5a,6-hexahydrocyclopropa[f]indazol-3-yl)-1H-indol-6-yl)-2-(4-((1-(1-(2,6-dioxopiperidin-3-yl)-3-methyl-2-oxo-2,3-dihydro-1H-benzo[d]imidazol-4-yl)piperidin-4-yl)methyl)piperazin-1-yl)-N-methylpropanamide] | 0.35 | 80 |  |  |  | 1.38 | 405 | 6 |  |  | 
C[C@@H](C(=O)N(C)c1ccc2cc(-c3n[nH]c4c3C[C@@H]3C(F)(F)[C@]3(C)C4)[nH]c2c1)N1CCN(CC2CCN(c3ccc(C(=O)NC4CCC(=O)NC4=O)nc3)CC2)CC1 (stereo partly drawn) [Compound 66, 5-(4-((4-((S)-1-((2-((4aS,5aR)-5,5-difluoro-5a-methyl-1,4,4a,5,5a,6-hexahydrocyclopropa[f]indazol-3-yl)-1H-indol-6-yl)(methyl)amino)-1-oxopropan-2-yl)piperazin-1-yl)methyl)piperidin-1-yl)-N-(2,6-dioxopiperidin-3-yl)picolinamide] | 0.55 | 71 |  |  |  | 1.74 | 526 | 4 |  |  | 
CN(C(=O)C1CN(C2CCN(c3ccc4c(c3)C(=O)N(C3CCC(=O)NC3=O)C4=O)CC2)C1)c1ccc2cc(-c3n[nH]c4c3CCC(C)(C)C4)[nH]c2c1 (centres unmarked) [Compound 35, N-(2-(6,6-dimethyl-4,5,6,7-tetrahydro-1H-indazol-3-yl)-1H-indol-6-yl)-1-(1-(2-(2,6-dioxopiperidin-3-yl)-1,3-dioxoisoindolin-5-yl)piperidin-4-yl)-N-methylazetidine-3-carboxamide] |  |  |  |  |  |  |  |  |  | 0.155 | 0.053
